pIC50, pKi: −log10 of the molar value.

This passage reports IC50 and Ki results from patent US11845740B2, “Glutaminyl cyclase inhibitors and the use thereof in treatment of various diseases” (OBSCHESTVO S OGRANICHENNOI OTVETSTVENNOSTIYU …, priority 2017, dated 2023).

The target of this test is recombinant intracellular human glutaminyl cyclase (Homo sapiens (Human), UniProt Q9NXS2). In words: Enzymatic activity of human glutaminyl cyclase in vitro (fluorescent substrate Gln-bNA). The test is classed as biochemical. Particulars: 25° C., 50 μM Gln-bNA, pH 8.0.
Chain of recombinant intracellular human glutaminyl cyclase (Q9NXS2 whole entry): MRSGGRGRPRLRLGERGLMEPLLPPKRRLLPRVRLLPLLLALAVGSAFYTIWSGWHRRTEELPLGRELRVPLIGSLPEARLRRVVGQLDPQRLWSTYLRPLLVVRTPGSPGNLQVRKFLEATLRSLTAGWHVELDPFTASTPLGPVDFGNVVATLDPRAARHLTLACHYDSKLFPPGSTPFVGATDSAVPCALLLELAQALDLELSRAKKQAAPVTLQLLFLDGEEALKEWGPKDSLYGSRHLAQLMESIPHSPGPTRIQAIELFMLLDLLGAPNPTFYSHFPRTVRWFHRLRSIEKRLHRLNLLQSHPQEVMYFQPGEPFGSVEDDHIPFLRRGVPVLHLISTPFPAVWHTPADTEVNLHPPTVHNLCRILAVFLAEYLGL

Method: The reaction mixture having a volume of 100-μl has contained 50 μM of fluorogenic substrate; ˜0.2 units of human pyroglutaminyl aminopeptidase (1 unit is defined as an amount hydrolyzing 1 micromole of pGlu-bNA per minute), and an aliquot of the recombinant intracellular human glutaminyl cyclase (gQC) in 50 mM trisaminomethane-HCl and 5% glycerol, a pH is 8.0.
The further course of the reaction was monitored spectrophotometrically (the wavelength of the excitation and emission were 320 and 410 nm). The enzyme activity was determined by an amount of the released 2-naphthyl amide (bNA), calculated from the calibration curve. The IC50 values were calculated using nonlinear regression of “inhibitor concentration”-“enzymatic activity” curve.

Broadly, the pIC50 is the IC50 on a negative log10 scale, so that one unit is a factor of ten. The term pKi denotes −log10 of the Ki, conventionally taken in molar units. Take `O=C(NCCc1cnc[nH]1)NCCc1cnc[nH]1` [Compound III, N,N′-bis[2-(1H-imidazol-4-yl)ethyl]carbamide]: the negative logarithm of the IC50 (pIC50) was 5.46 and the negative-log Ki (pKi) was 5.70.
